Experimental data published in patent US20230174584A1, “Antibiotic Compounds” (priority 2019, published 2023).
Converted amounts (≈) assume the structure as drawn. Like-named read-outs stand apart in the source and are kept apart here.

Assays:
[1] = tested on: E. faecium E0338; assay: MIC assay; type: cell-based, Enterococcus faecium
[2] = tested on: E. faecium E7312; assay: MIC assay; type: cell-based, Enterococcus faecium
[3] = tested on: S. pneumoniae 153; assay: MIC assay; type: cell-based
Procedure, shortened: (§1)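 MICs (μg/mL) were read after 24 h incubation at 37 °C and taken as the median of at least three replicates. Compounds were serially diluted twofold in TSB containing 0.002% polysorbate 80 and inoculated with an equal volume of bacteria at 10^6 CFU/mL.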

[4] = tested on: Klebsiella pneumoniae JS265; assay: MIC assay; type: cell-based
Procedure, shortened: as §1

[5] = tested on: Escherichia coli ATCC 35218; assay: MIC assay; type: cell-based
Procedure, shortened: as §1

[6] = tested on: Klebsiella pneumoniae ATCC 13883; assay: MIC assay; type: cell-based
Procedure, shortened: as §1

[7] = tested on: Escherichia coli ATCC 25922; assay: MIC assay; type: cell-based
Procedure, shortened: as §1

[8] = tested on: Escherichia coli W3110; assay: MIC assay; type: cell-based
Procedure, shortened: as §1

[9] = tested on: Klebsiella pneumoniae ATCC 27736; assay: MIC assay; type: cell-based
Procedure, shortened: as §1

[10] = tested on: E. faecium E1441; assay: MIC assay; type: cell-based, Enterococcus faecium
[11] = tested on: E. faecium E0333; assay: MIC assay; type: cell-based, Enterococcus faecium
Procedure, shortened: as §1

[12] = tested on: E. faecium E1763; assay: MIC assay; type: cell-based, Enterococcus faecium
Procedure, shortened: as §1

[13] = tested on: panel of 31 vancomycin-resistant E. faecium strains; assay: MIC assay, MIC50/MIC90 over panel; type: cell-based, Enterococcus faecium
Description: The antibacterial activity of the compounds was tested against a panel of bacteria, including Gram-positive bacteria (S. aureus ATCC29213, S. aureus USA300, S. aureus LIM-2, NR-45881, S. aureus HIP13419, NR-46413, E. faecium E155, E. faecium E7314, E. faecium E980, E. faecalis E1246, E. faecalis E7406 and S. pneumonia 153). The antibacterial activity of the compounds was further tested against S. aureus NY-155, NR-46236, S. aureus HIP12864, NR-46074, S. aureus 880 (BR-VRSA), NR-49120, E. faecalis E1246, E. faecalis E7604, as well as some Gram-negative bacteria (Escherichia coli and Klebsiella pneumoniae). Minimum inhibitory concentrations (MICs) in μg/mL were performed according to the CLSI guidelines. From glycerol stocks, bacterial strains were cultured on blood agar plates and incubated at 37° C. for 18 h. A single colony was transferred to tryptic soy broth (TSB) with 0.002% polysorbate 80 (p80). For the Enterococcus, VISA and VRSA strains, the cultures were grown at 37° C. until the optical density of the suspension reached a level equivalent to the 0.5 McFarland standard. The bacterial suspensions were diluted in TSB with 0.002% p80 to reach a bacterial cell density of 10^6 CFU/mL. In case of the other (vancomycin-sensitive) S. aureus strains, the direct colony suspension method was used. For these strains, after transfer of the colonies to TSB with 0.002% p80, they were immediately diluted to 10^6 CFU/mL, instead of incubated prior to this dilution. In the case of S. pneumonia, direct colony suspension was used by immediately suspending multiple colonies from fresh blood agar plates in TSB+0.002% p80 to an OD600 of 0.5 and subsequent dilution to 10^6 CFU mL^−1 in TSB+0.002% p80+5% lysed horse blood. Antibiotic dilutions for this strains were also made in TSB+0.002% p80+5% lysed horse blood. Both agar and microplates containing S. pneumonia were incubated at 37° C. with 5% CO2 for 24 h with constant shaking (600 rpm). […] The cultures were grown to exponential phase (OD600=0.5) at 37° C. […] In polypropylene 96-well microtiter plates, test compounds were added in biological triplicates and serial diluted 2-fold by transfer and mixing from one well to the next to achieve a final volume of 50 μL per well. An equal volume of bacterial suspension (10^6 CFU mL^−1) was added to the wells. The plates were sealed with breathable membranes and incubated at 37° C. for 24 h with constant shaking (600 rpm). In polypropylene microtiter plates, 100 μL of the test compounds was added to the first row in biological triplicates, and 50 μL of media was added to the other wells. The compounds were subjected to serial dilution by transfer and mixing of 50 μL from one well to the next. Subsequently, 50 μL of bacterial suspension (10^6 CFU/mL) was added to the wells. The plates were sealed with breathable membranes and incubated at 37° C. for 24 h with constant shaking (600 rpm). Positive growth control consisted of wells with bacterial suspension and without antibiotic. Negative growth control consisted of solely media without bacterial suspension or antibiotic. The MICs were determined from the median of a minimum of triplicates.

[14] = tested on: E. faecalis E1246; assay: MIC assay; type: cell-based, Enterococcus faecalis
Procedure, shortened: as §1

[15] = tested on: S. aureus ATCC29123; assay: Lipid II antagonization assay; type: cell-based, Staphylococcus aureus; conditions: for visible bacterial growth with lipid II / visible bacterial growth without lipid II: 8×MIC of test compound, 24 h; for visible bacterial growth with lipid II: 5-fold molar excess of lipid II; for bacterial growth after co-incubation with lipid II: 8×MIC; on visible bacterial growth with lipid II: key: − means no visible growth; + means visible growth; on visible bacterial growth without lipid II: key: − means no visible growth; + means visible growth
Description: Lipid II in chloroform was added in the appropriate amount (5-fold molar excess compared to test antibiotics) to a 96-well plate and the chloroform was allowed to evaporate. […] Of these dilutions, 50 μL was mixed with the 5-fold molar excess of pure lipid II in triplicates in the plate as well as added to the plate in triplicates without lipid II present. S. aureus ATCC29123 colonies were suspended in TSB with 0.002% p80 by direct colony suspension to an optical density that reached a level equivalent to the 0.5 McFarlan standard. […] The samples were incubated at 37° C. for 24 h with constant shaking (600 rpm) and inspected for visible bacterial growth. Positive growth control consisted of wells with bacterial suspension and without antibiotic or lipid II. Negative growth control consisted of solely media without bacterial suspension, antibiotic or lipid II.
In the antagonization assay, lipid II is co-incubated with the test antibiotics in the presence of bacterial culture. When lipid II binds the glycopeptides, the binding of these antibiotics to their target in the growing bacterial culture is antagonized. This ultimately results in diminished activity of the antibiotics and bacterial growth which normally would not be visible (at 8×MIC) becomes visible. Therefore, this assay could be used to determine if part of the mechanism of action of our compounds involves binding to lipid II.

[16] = S. pneumoniae 153, TSB+0.002% p80+5% lysed horse blood
[17] = panel of 31 vancomycin-resistant E. faecium strains
[18] = E. faecalis E1246 VRE (VanA), Table 7
[19] = E. faecalis E1246 VRE (vanA), Table 9

| Compound | MIC ([1]; E. faecium E0338, VanA) [µg/mL] | MIC ([2]; E. faecium E7312, VanA) [µg/mL] | MIC [3, 16] [µg/mL] | MIC [4] [µg/mL] | MIC [5] [µg/mL] | MIC [6] [µg/mL] | MIC [7] [µg/mL] | MIC [8] [µg/mL] | MIC [9] [µg/mL] | MIC ([10]; E. faecium E1441, VanA) [µg/mL] | MIC ([11]; E. faecium E0333, VanA) [µg/mL] | MIC ([12]; E. faecium E1763, VanA) [µg/mL] | MIC50 [13, 17] [µg/mL] | MIC90 [13, 17] [µg/mL] | MIC [14, 18] [µg/mL] | MIC [14, 19] [µg/mL] | visible bacterial growth with lipid II [15] | visible bacterial growth without lipid II [15] | bacterial growth after co-incubation with lipid II [15] | other results |
| --- | --- | --- | --- | --- | --- | --- | --- | --- | --- | --- | --- | --- | --- | --- | --- | --- | --- | --- | --- | --- |
| CCCCCCCCCNC(N)=Nc1ccc(CN[C@@]2(C)C[C@H](O[C@H]3[C@H](Oc4c5cc6cc4Oc4ccc(cc4Cl)[C@@H](O)[C@@H](NC(=O)[C@@H](CC(C)C)NC)C(=O)N[C@@H](CC(N)=O)C(=O)N[C@H]6C(=O)N[C@H]4C(=O)N[C@H](C(=O)N[C@H](C(=O)O)c6cc(O)cc(O)c6-c6cc4ccc6O)[C@H](O)c4ccc(c(Cl)c4)O5)O[C@H](CO)[C@@H](O)[C@@H]3O)O[C@@H](C)[C@H]2O)cc1 [Compound 7] | 0.5 (≈ 0.29 µM) | 0.031 (≈ 0.018 µM) | ≤0.008 | >128 | >128 | >128 | >128 | >128 | >128 | 1 (≈ 0.58 µM) | 1 (≈ 0.58 µM) | ≤0.008 | 0.125 (≈ 0.0726 µM) | 1 (≈ 0.58 µM) | 2 (≈ 1.16 µM) | 2 (≈ 1.16 µM) | + | − | Bacterial growth was visible |  |
| CCCCCCCNC(N)=Nc1ccc(CN[C@@]2(C)C[C@H](O[C@H]3[C@H](Oc4c5cc6cc4Oc4ccc(cc4Cl)[C@@H](O)[C@@H](NC(=O)[C@@H](CC(C)C)NC)C(=O)N[C@@H](CC(N)=O)C(=O)N[C@H]6C(=O)N[C@H]4C(=O)N[C@H](C(=O)N[C@H](C(=O)O)c6cc(O)cc(O)c6-c6cc4ccc6O)[C@H](O)c4ccc(c(Cl)c4)O5)O[C@H](CO)[C@@H](O)[C@@H]3O)O[C@@H](C)[C@H]2O)cc1 [Compound 5] | 4 (≈ 2.36 µM) | 0.25 (≈ 0.148 µM) | ≤0.008 | >128 | >128 | >128 | >128 | >128 | >128 | 4 (≈ 2.36 µM) | 8 (≈ 4.72 µM) | 0.25 (≈ 0.148 µM) | 1 (≈ 0.59 µM) | 8 (≈ 4.72 µM) | 16 (≈ 9.44 µM) | 16 (≈ 9.44 µM) | + | − | Bacterial growth was visible |  |
| CCCCCCCCCCNCCN[C@@]1(C)C[C@H](O[C@H]2[C@H](Oc3c4cc5cc3Oc3ccc(cc3Cl)[C@@H](O)[C@@H](NC(=O)[C@@H](CC(C)C)NC)C(=O)N[C@@H](CC(N)=O)C(=O)N[C@H]5C(=O)N[C@H]3C(=O)N[C@H](C(=O)N[C@H](C(=O)O)c5cc(O)c(CNCP(=O)(O)O)c(O)c5-c5cc3ccc5O)[C@H](O)c3ccc(c(Cl)c3)O4)O[C@H](CO)[C@@H](O)[C@@H]2O)O[C@@H](C)[C@H]1O [Telavancin, reference compound] |  |  |  |  | > 128 |  |  |  |  |  |  |  |  |  |  | 4 (≈ 2.28 µM) | + | − |  | MIC ([1]; Enterococcus faecium, E0338): 8 µg/mL (≈ 4.56 µM); MIC ([2]; Enterococcus faecium, E7312): 2 µg/mL (≈ 1.14 µM); MIC ([3]; Streptococcus pneumoniae, 153): ≤ 0.008 µg/mL; MIC ([4]; read-out: MIC): > 128 µg/mL; MIC ([6]; ATCC13883, read-out: MIC): > 128 µg/mL; MIC ([7]; ATCC25922, read-out: MIC): > 128 µg/mL; MIC ([8]; read-out: MIC): > 128 µg/mL; MIC ([9]; ATCC27736, read-out: MIC): > 128 µg/mL; MIC ([10]; Enterococcus faecium, E1441): 8 µg/mL (≈ 4.56 µM); MIC ([11]; Enterococcus faecium, E0333): 8 µg/mL (≈ 4.56 µM); MIC ([12]; Enterococcus faecium, E1763): 1 µg/mL (≈ 0.57 µM); MIC50 ([13]; Enterococcus faecium): 4 µg/mL (≈ 2.28 µM); MIC90 ([13]; Enterococcus faecium): 8 µg/mL (≈ 4.56 µM); MIC ([14]; Enterococcus faecalis, VRE): 4 µg/mL (≈ 2.28 µM) |
